Values of other authors as cited in patent US20030206884A1, “Embalming fluid” (AARD-BALM LIMITED, priority 2000, published 2003).

Tested on: eyes, nose and throat

## C=O [formaldehyde]
  airborne concentration causing irritation of the eyes, nose and throat: above 0.1 ppm
  airborne concentration that is a danger to life and health: 100 ppm
